Reference: DBAASP
Values after ≈ are worked out from the molar mass of the structure shown.

Tests used:
Assay in all cases: ≥ marks a high value that may be exact or a test limit, other limits are often not marked, values filed in µg/mL are converted to µM
[1] = test system: Candida albicans NCYC 1467
[2] = test system: Escherichia coli NCTC 10418
[3] = test system: Staphylococcus aureus NCTC 10788
[4] = test system: Escherichia coli ATCC 11775
[5] = test system: Staphylococcus aureus ATCC 12600
Candida albicans = test system: Candida albicans
[6] = test system: Enterococcus faecalis ATCC 29212
Escherichia coli UB1005 = test system: Escherichia coli UB1005
[7] = test system: Pseudomonas aeruginosa H103
[8] = test system: Salmonella enterica serovar Typhimurium
[9] = test system: Staphylococcus aureus ATCC 25923
[10] = test system: Staphylococcus epidermidis
[11] = test system: Bacillus subtilis KCTC 3068
[12] = test system: Escherichia coli KCTC 1682
[13] = test system: Pseudomonas aeruginosa KCTC 1637
[14] = test system: Salmonella typhimurium KCTC 1926
[15] = test system: Staphylococcus aureus KCTC 1621
[16] = test system: Staphylococcus epidermidis KCTC 1917
[17] = test system: Escherichia coli ATCC 25922
[18] = test system: Pseudomonas aeruginosa PAO1
Enterococcus faecium = test system: Enterococcus faecium
Staphylococcus aureus = test system: Staphylococcus aureus
[19] = test system: Pseudomonas aeruginosa Ps4

MIC (Candida albicans) [µM]	MIC [6] [µM]	MIC (Escherichia coli UB1005) [µM]	MIC [7] [µM]	MIC [8] [µM]	MIC [9] [µM]	MIC [10] [µM]	SMILES	other results
13.8 (≈ 16 µg/mL)	13.8 (≈ 16 µg/mL)	6.92 (≈ 7.99 µg/mL)	13.8 (≈ 16 µg/mL)	26.8 (≈ 31 µg/mL)	13.8 (≈ 16 µg/mL)	3.46 (≈ 4 µg/mL)	CC[C@H](C)[C@H](NC(=O)[C@@H](NC(=O)[C@H](Cc1c[nH]c2ccccc12)NC(=O)[C@@H](NC(=O)[C@@H](N)CCCCN)[C@@H](C)CC)C(C)C)C(=O)N[C@@H](CCCN=C(N)N)C(=O)N[C@@H](Cc1c[nH]c2ccccc12)C(=O)N[C@@H](CCCN=C(N)N)C(N)=O [KIWVIRWR]	–
–	–	–	–	≥ 42.8	21.4 (≈ 32 µg/mL)	–	CC[C@H](C)[C@H](NC(=O)[C@H](CCCN=C(N)N)NC(=O)[C@H](Cc1c[nH]c2ccccc12)NC(=O)[C@H](CCC(N)=O)NC(=O)[C@@H](N)CCCCN)C(=O)N[C@@H](CCCN=C(N)N)C(=O)N[C@H](C(=O)N[C@@H](C)C(=O)N[C@H](C(=O)N[C@H](C(=O)N[C@@H](CCCN=C(N)N)C(=O)N[C@@H](C)C(=O)O)[C@@H](C)CC)C(C)C)C(C)C [KQWRIRVAVIRA]	MIC [17]: 21.4 µM (≈ 32 µg/mL); MIC [18]: 85.6 µM (≈ 128 µg/mL)

The next lines start with the compound.

SMILES	MIC (Candida albicans) [µM]	MIC [6] [µM]	MIC (Escherichia coli UB1005) [µM]	MIC [7] [µM]	MIC [8] [µM]	MIC [9] [µM]	MIC [10] [µM]	other results
CC[C@H](C)[C@H](NC(=O)[C@H](CC(=O)O)NC(=O)[C@H](CCCCN)NC(=O)[C@H](Cc1c[nH]c2ccccc12)NC(=O)[C@H](CC(C)C)NC(=O)[C@H](C)N)C(=O)N[C@@H](CC(C)C)C(=O)N[C@@H](CCCCN)C(=O)N[C@@H](CC(N)=O)C(=O)N[C@@H](CC(C)C)C(=O)N[C@@H](CC(C)C)C(=O)N[C@@H](CCCCN)C(=O)N[C@@H](C)C(=O)N[C@@H](C)C(=O)N[C@@H](CC(C)C)C(=O)N[C@@H](CC(N)=O)C(=O)N[C@@H](CCC(=O)O)C(=O)N[C@H](C(=O)N[C@@H](CC(N)=O)C(=O)N[C@@H](CCC(N)=O)C(=O)N[C@H](C(=O)N[C@H](C(=O)N[C@@H](CCC(N)=O)C(N)=O)C(C)C)[C@@H](C)CC)[C@@H](C)CC [ALWKDILKNLLKAALNEINQIVQ]	–	–	–	–	–	–	–	MIC [1]: 16 µM (≈ 42.4 µg/mL); MIC [2]: 16 µM (≈ 42.4 µg/mL); MIC [3]: 8 µM (≈ 21.2 µg/mL)
CC[C@H](C)[C@H](N)C(=O)N[C@H](C(=O)N1CCC[C@H]1C(=O)N[C@@H](CC(C)C)C(=O)N1CCC[C@H]1C(=O)N[C@@H](CC(C)C)C(=O)NCC(=O)N[C@@H](Cc1ccc(O)cc1)C(=O)N[C@@H](Cc1ccccc1)C(=O)N[C@@H](C)C(=O)N[C@@H](CCCCN)C(=O)N[C@@H](CCCCN)C(=O)N[C@H](C(=O)O)[C@@H](C)O)[C@@H](C)CC [IIPLPLGYFAKKT]	–	–	–	–	–	–	–	MIC [4]: 3 µM (≈ 4.38 µg/mL); MIC [5]: 6 µM (≈ 8.76 µg/mL)
C[C@@H](O)[C@H](NC(=O)[C@H](Cc1c[nH]c2ccccc12)NC(=O)[C@H](Cc1c[nH]c2ccccc12)NC(=O)[C@@H](NC(=O)[C@H](CCCCN)NC(=O)[C@H](Cc1c[nH]c2ccccc12)NC(=O)[C@H](Cc1c[nH]c2ccccc12)NC(=O)[C@@H](NC(=O)[C@H](CCCCN)NC(=O)[C@@H](N)CCCCN)[C@@H](C)O)[C@@H](C)O)C(=O)N[C@@H](CCCCN)C(=O)N[C@@H](Cc1c[nH]c2ccccc12)C(=O)O [KKTWWKTWWTKW]	–	–	–	–	–	–	–	MIC [11]: 2 µM (≈ 3.53 µg/mL); MIC [12]: 4 µM (≈ 7.06 µg/mL); MIC [13]: 8 µM (≈ 14.1 µg/mL); MIC [14]: 4 µM (≈ 7.06 µg/mL); MIC [15]: 4 µM (≈ 7.06 µg/mL); MIC [16]: 4 µM (≈ 7.06 µg/mL)
CC[C@H](C)[C@H](NC(=O)[C@H](CCCCN)NC(=O)[C@H](CC(C)C)NC(=O)[C@H](CC(C)C)NC(=O)[C@@H](N)CCCCN)C(=O)N[C@H](C(=O)N[C@H](C(=O)N[C@H](C(=O)N[C@@H](CCCCN)C(=O)N[C@H](C(=O)N[C@@H](CC(C)C)C(=O)N[C@@H](CCCCN)C(N)=O)C(C)C)[C@@H](C)CC)C(C)C)C(C)C [KLLKIVVIKVLK]	–	–	–	–	–	–	–	MIC [11]: 8.97 µM (≈ 12.5 µg/mL); MIC [12]: 8.97 µM (≈ 12.5 µg/mL); MIC [13]: 8.97 µM (≈ 12.5 µg/mL); MIC [14]: 4.48 µM (≈ 6.25 µg/mL); MIC [15]: 8.97 µM (≈ 12.5 µg/mL); MIC [16]: 8.97 µM (≈ 12.5 µg/mL)
CC[C@H](C)[C@H](NC(=O)[C@H](C)NC(=O)[C@H](CC(C)C)NC(=O)[C@@H]1CCCN1C(=O)[C@@H](NC(=O)[C@H](CCSC)NC(=O)CNC(=O)[C@H](CC(C)C)NC(=O)[C@@H](N)CC(C)C)[C@@H](C)CC)C(=O)N[C@@H](CO)C(=O)N[C@@H](C)C(=O)N[C@H](C(=O)N[C@@H](CO)C(=O)N[C@@H](CO)C(=O)N[C@@H](CC(C)C)C(=O)N[C@@H](CO)C(=O)N[C@@H](CCCCN)C(=O)N[C@@H](CC(C)C)C(N)=O)[C@@H](C)CC [LLGMIPLAISAISSLSKL]	–	–	–	–	–	–	–	MIC [1]: ≥ 35 µM; MIC [3]: 17.5 µM (≈ 32 µg/mL)
CC[C@H](C)[C@H](NC(=O)[C@H](CCCN=C(N)N)NC(=O)[C@H](CCCN=C(N)N)NC(=O)[C@H](CC(C)C)NC(=O)[C@@H](N)CCCN=C(N)N)C(=O)N[C@H](C(=O)N[C@H](C(=O)N[C@H](C(=O)N[C@@H](CCCN=C(N)N)C(=O)N[C@H](C(=O)N[C@@H](Cc1ccccc1)C(=O)N[C@@H](CCCN=C(N)N)C(=O)O)C(C)C)[C@@H](C)CC)C(C)C)C(C)C [RLRRIVVIRVFR]	16 (≈ 25.3 µg/mL)	2 (≈ 3.17 µg/mL)	4 (≈ 6.33 µg/mL)	8 (≈ 12.7 µg/mL)	4 (≈ 6.33 µg/mL)	1 (≈ 1.58 µg/mL)	0.5 (≈ 0.792 µg/mL)	–
CC[C@H](C)[C@H](NC(=O)[C@@H](NC(=O)[C@@H](NC(=O)[C@H](CCCN=C(N)N)NC(=O)[C@H](CCCN=C(N)N)NC(=O)[C@H](CCC(N)=O)NC(=O)[C@@H](N)CCCN=C(N)N)C(C)C)C(C)C)C(=O)N[C@@H](Cc1c[nH]c2ccccc12)C(=O)N[C@@H](Cc1c[nH]c2ccccc12)C(=O)O [RQRRVVIWW]	21.4 (≈ 27.8 µg/mL)	5.3 (≈ 6.88 µg/mL)	1.3 (≈ 1.69 µg/mL)	10.7 (≈ 13.9 µg/mL)	5.3 (≈ 6.88 µg/mL)	2.7 (≈ 3.51 µg/mL)	1.3 (≈ 1.69 µg/mL)	–
NC(=O)[C@H](CCCN=C(N)N)NC(=O)[C@H](CCCN=C(N)N)NC(=O)[C@H](Cc1c[nH]c2ccccc12)NC(=O)[C@@H]1CCCN1C(=O)[C@H](Cc1c[nH]c2ccccc12)NC(=O)[C@H](Cc1c[nH]c2ccccc12)NC(=O)[C@@H]1CCCN1C(=O)[C@H](Cc1c[nH]c2ccccc12)NC(=O)[C@H](CCCN=C(N)N)NC(=O)[C@@H](N)CCCN=C(N)N [RRWPWWPWRR]	–	–	–	–	–	–	–	MIC [11]: 1.26 µM (≈ 2 µg/mL); MIC (Enterococcus faecium): 1.79 µM (≈ 2.83 µg/mL); MIC [12]: 1.26 µM (≈ 2 µg/mL); MIC [14]: 2.53 µM (≈ 4 µg/mL); MIC [15]: 1.26 µM (≈ 2 µg/mL); MIC (Staphylococcus aureus): 2.53 µM (≈ 4 µg/mL)
CC[C@H](C)[C@H](NC(=O)[C@H](CC(N)=O)NC(=O)[C@H](CCCN=C(N)N)NC(=O)[C@H](CCC(N)=O)NC(=O)[C@H](Cc1c[nH]c2ccccc12)NC(=O)[C@@H](N)CCCN=C(N)N)C(=O)N[C@@H](CCCN=C(N)N)C(=O)N[C@@H](CCCCN)C(=O)N[C@H](C(=O)N[C@@H](CCCN=C(N)N)C(=O)N[C@@H](CCCN=C(N)N)C(N)=O)C(C)C [RWQRNIRKVRR]	–	–	–	–	–	–	–	MIC [19]: ≥ 159 µM
CC[C@H](C)[C@H](NC(=O)[C@H](CCCN=C(N)N)NC(=O)[C@@H](NC(=O)[C@H](Cc1c[nH]c2ccccc12)NC(=O)[C@H](Cc1c[nH]c2ccccc12)NC(=O)[C@@H](N)CCCN=C(N)N)[C@@H](C)CC)C(=O)N[C@@H](CCCN=C(N)N)C(=O)N[C@@H](Cc1c[nH]c2ccccc12)C(=O)N[C@@H](Cc1cnc[nH]1)C(=O)O [RWWIRIRWH]	10.7 (≈ 15.1 µg/mL)	2.7 (≈ 3.8 µg/mL)	1.3 (≈ 1.83 µg/mL)	10.7 (≈ 15.1 µg/mL)	2.7 (≈ 3.8 µg/mL)	1.3 (≈ 1.83 µg/mL)	1.3 (≈ 1.83 µg/mL)	–
